Assay results from PubChem BioAssay AID1959 (Broad Institute, 2009).
Active and inactive are the calls of the source.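 How the source made its calls: active means growth-inhibition EC50 no more than tenfold above the top tested dose; inconclusive means flat fit between 30% and 70% inhibition, or unreliable fit; inactive means EC50 more than tenfold above the top tested dose.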

Each compound was assayed on E. coli NEB5alpha growth, BacTiter-Glo luminescence, 4 h (assay: Escherichia coli growth inhibition, dose response, counter-screen for MEX-5/POS-1 RNA-binding inhibitor project, luminescence, NEB5alpha (AID 1959);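 further: pUC19-transformed ampicillin-resistant cells grown in LB with ampicillin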).
In the case of `CCN1C=CC2=C(C#N)C(N)C(C#N)(C#N)C(c3ccccc3C(F)(F)F)C2C1` (stereo not drawn), the EC50 is reported as > 11 µM (inactive). For `COC(=O)C1=COC(C)C2CN3CCc4c([nH]c5cc(OC)c(OC)cc45)C3CC12` (stereo not drawn), the EC50 was > 11 µM (inactive). With `Cc1nc(S/C(=C\c2ccc(-c3ccc(C(=O)O)c(Cl)c3)o2)C(=O)O)n[nH]1` the EC50 was > 11 µM (inactive). For `N#CC1=C(N)C(C#N)(C#N)C(c2cccnc2)C2CCCC=C12` (stereo not drawn), the EC50 was > 11 µM (inactive). With `COc1ccc(N=Cc2c(O)n(-c3cccc(C)n3)c(=O)c3ccccc23)cc1` the EC50 was > 11 µM (inactive). `O=C(O)c1ccc2nc(-c3ccco3)c(-c3ccco3)nc2c1` was tested, and the EC50 was > 11 µM (inactive). With `O=C(N/N=C/c1c(O)n(CCc2ccccc2)c(=O)[nH]c1=O)c1ccccc1` the EC50 was > 11 µM (inactive). With `COC(=O)c1c(C(=O)OC)c2n(c1C)Cc1ccccc1C2` the EC50 was > 11 µM (inactive). `CCc1cc[n+](-c2nc([O-])sc2C=O)cc1` was tested, and the EC50 was > 11 µM (inactive). With `COc1ccc(-c2cc(C(=O)N/N=C(\C)c3ccco3)c3ccccc3n2)c(OC)c1` the EC50 was > 11 µM (inactive). For `O=C(O)c1cccc(-n2cccc2/C=N/O)c1`, the EC50 was > 11 µM (inactive). `COc1ccc(C2C(C#N)=C(/N=C/N3CCN(C)CC3)OC3=C2C(=O)CC(C)(C)C3)cc1` (stereo not drawn) was tested, and the EC50 was > 11 µM (inactive). In the case of `CCNC(=S)N(C)CCc1cc2c(c(OC)c1C=C1C(=O)N(C)C(=O)N(C)C1=O)OCO2`, the EC50 is reported as > 11 µM (inactive). In the case of `Cc1ccc(/C=C/C(=O)O)cc1S(=O)(=O)N1CCCCC1`, the EC50 is reported as > 11 µM (inactive). For `CCC(=S)/C=C1\Sc2ccc3ccccc3c2N1CCCS(=O)(=O)O`, the EC50 was > 11 µM (inactive). For `COc1ccc(N2C(=O)NC(=O)/C(=C/c3ccc4c(c3)Cc3ccccc3-4)C2=O)cc1`, the EC50 was > 11 µM (inactive). For `CCCCC1=CC2=C(c3ccco3)C(=O)C(C)(OC(=O)c3ccc(OC)cc3)C(=O)C2=CN1C1CCCC1` (stereo not drawn), the EC50 was > 11 µM (inactive). `CCOc1ccc(N2C(=O)S/C(=C\c3cccn3C)C2=O)cc1` was tested, and the EC50 was > 11 µM (inactive). For `COc1cc(C2C(C#N)=C(N)OC3=C2C(=O)CCC3)c([N+](=O)[O-])cc1OC` (stereo not drawn), the EC50 was > 11 µM (inactive). For `C[n+]1c(-c2ccccc2)c2cc(N)ccc2c2ccc(N)cc21`, the EC50 was > 11 µM (inactive). With `N#CC1=C(N)OC2=C(C(=O)CC(c3ccco3)C2)C1c1ccc(OCc2c(F)cccc2Cl)cc1` (stereo not drawn) the EC50 was > 11 µM (inactive). With `CCN(CC)c1nc(-c2nn[nH]n2)nc(N(CC)CC)n1` the EC50 was > 11 µM (inactive). In the case of `COc1ccccc1N1C(=O)C2C(C(=O)c3ccccc3)=NN(c3ccc(C)cc3)C2C1=O` (stereo not drawn), the EC50 is reported as > 11 µM (inactive). In the case of `CO[C@H]1O[C@H](CBr)[C@@H](OC(=O)c2ccccc2)[C@H](O)[C@H]1O`, the EC50 is reported as > 11 µM (inactive). With `C[C@@H]1O[C@@H](Oc2c(-c3cc(O)c(O)c(O)c3)oc3cc(O)cc(O)c3c2=O)[C@H](O)[C@H](O)[C@H]1O` the EC50 was > 11 µM (inactive). For `CCOC(=O)/C(C#N)=C/c1cc2ccccc2nc1N1CCCCC1`, the EC50 was > 11 µM (inactive). With `COc1ccc(CNC(=O)c2cnc3cc(C)ccn3c2=O)cc1` the EC50 was > 11 µM (inactive). In the case of `Cc1ccc2ccc(C3C(=O)c4ccccc4C3=O)nc2c1`, the EC50 is reported as > 11 µM (inactive). For `CSc1nnc(N2C(=O)C(O)=C(C(=O)c3ccco3)C2c2ccccc2)s1` (stereo not drawn), the EC50 was > 11 µM (inactive). In the case of `CCCCn1c(O)c(/C=C2\C=Nc3ccccc32)c(=O)[nH]c1=O`, the EC50 is reported as > 11 µM (inactive). `COc1ccc(Nc2nc3ccccc3nc2NS(=O)(=O)c2cccs2)cc1` was tested, and the EC50 was > 11 µM (inactive). For `O=C(O)CCCN1C(=O)/C(=C/c2ccc(-c3nc4ccccc4s3)o2)SC1=S`, the EC50 was > 11 µM (inactive). In the case of `O=C1N=c2ccc([N+](=O)[O-])cc2=C1c1sc(=O)[nH]c1O`, the EC50 is reported as > 11 µM (inactive). In the case of `N#C/C(=C/c1cccn1-c1cccc(C(=O)O)c1)c1ccc(F)cc1`, the EC50 is reported as > 11 µM (inactive). With `COc1ccc(/C=C2\SC(=S)N(CCC(=O)NC3CCCC3)C2=O)cc1OC` the EC50 was > 11 µM (inactive). In the case of `O=C(N/N=C/c1cc(Cl)cc([N+](=O)[O-])c1O)c1ccc2c(c1)OCO2`, the EC50 is reported as > 11 µM (inactive). `Cc1ccc(/C(O)=C/c2nc3cc(C)ccc3oc2=O)cc1` was tested, and the EC50 was > 11 µM (inactive). `O=C(NNc1ccccn1)C(=O)NNS(=O)(=O)c1ccc(F)cc1` was tested, and the EC50 was > 11 µM (inactive). With `COc1ccc(-c2cn[nH]c2-c2ccc(OCC(=O)NN)cc2O)cc1OC` the EC50 was > 11 µM (inactive). For `CC(=O)C1=C(c2ccccc2)NC(=O)NC1c1ccc(O)c(O)c1` (stereo not drawn), the EC50 was > 11 µM (inactive). For `O=C(/C=C/c1ccc(OCCCF)cc1)Nc1ccnc(-c2cccnc2)n1`, the EC50 was > 11 µM (inactive). For `Cc1ccc(S(=O)(=O)C(C#N)c2nc3ccccc3nc2N2CC(C)OC(C)C2)cc1C` (stereo not drawn), the EC50 was > 11 µM (inactive). `COc1ncnc2c1NC1=C(S2)C(=NCCC(=O)O)CC(C)(C)C1` was tested, and the EC50 was > 11 µM (inactive). In the case of `Cc1ccc(/C=C2/Sc3ccc(C(=O)N4CCN(c5ccccn5)CC4)cc3NC2=O)cc1`, the EC50 is reported as > 11 µM (inactive). With `CC(C)CNC(=O)C1Nc2ccc(C(F)(F)F)cc2C2C=CCC12` (stereo not drawn) the EC50 was > 11 µM (inactive). `CCC(=O)OC1(C)C(=O)C=C2C=C(c3ccsc3)OC=C2C1=O` (stereo not drawn) was tested, and the EC50 was > 11 µM (inactive). In the case of `CCCCOc1c(Br)cc(/C=N/O)cc1OCC`, the EC50 is reported as > 11 µM (inactive). `CCN1CCN(C(=O)c2ccc3c(=O)n(Cc4ccccc4OC)c(=S)[nH]c3c2)CC1` was tested, and the EC50 was > 11 µM (inactive). `Cc1ccc(C(=O)C2=C(O)C(=O)N(Cc3ccco3)C2c2ccc(N(C)C)cc2)o1` (stereo not drawn) was tested, and the EC50 was > 11 µM (inactive). With `COc1cc(C2C(C#N)=C(N)OC3=C2C(=O)CCC3)cc2c1OCO2` (stereo not drawn) the EC50 was > 11 µM (inactive). With `Cc1ccc(C(=O)N/C(=C\c2ccc(-c3ccccc3[N+](=O)[O-])o2)C(=O)NCCCN(C)C)cc1` the EC50 was > 11 µM (inactive). For `O=C(CNS(=O)(=O)c1ccc([N+](=O)[O-])cc1)N/N=C/c1ccc(O)cc1O`, the EC50 was > 11 µM (inactive). In the case of `CCc1cc(=O)oc2cc(C)cc(OC(C)C(=O)O)c12` (stereo not drawn), the EC50 is reported as > 11 µM (inactive). `c1ccc(C2=NNC(c3ccccn3)=NN2)nc1` was tested, and the EC50 was > 11 µM (inactive). `COc1ccc(CCn2c(O)c(/C=N/NC(=O)c3ccncc3)c(=O)[nH]c2=O)cc1OC` was tested, and the EC50 was > 11 µM (inactive). In the case of `CC(=O)Oc1oc(-c2ccccc2)nc1C=Nc1ccc(N(C)C)cc1`, the EC50 is reported as > 11 µM (inactive). For `CC(C)CNC(=O)c1ccc(C2SCC(=O)N2Cc2ccccc2)cc1` (stereo not drawn), the EC50 was > 11 µM (inactive). `O=C(O)c1ccc(N/N=C/C2=C(N3CCOCC3)C(=C\c3ccccc3)/CC2)cc1` was tested, and the EC50 was > 11 µM (inactive). For `COc1ccc(N/C(=C(/C(Cl)=C(Cl)Cl)[N+](=O)[O-])n2nnc3ccccc32)cc1`, the EC50 was > 11 µM (inactive). `CCCn1nc(C(=O)Nc2ccc(S(=O)(=O)Nc3nccs3)cc2)c2ccccc2c1=O` was tested, and the EC50 was > 11 µM (inactive). With `O=c1[nH]c(=O)n(-c2ccc(Cl)cc2)c(O)c1C=NCCN1CCCCC1` the EC50 was > 11 µM (inactive). With `COC(=O)c1ccc(C23CC4(C2)[C@H](CN(Cc2ccc(C(F)(F)F)cc2)[C@@H]4c2ccccc2)C3c2ccccc2)cc1` (stereo partly drawn) the EC50 was > 11 µM (inactive). `c1ccc(-c2cn3nc4c(nc3n2)CCCC4)cc1` was tested, and the EC50 was > 11 µM (inactive). In the case of `O=[N+]([O-])c1cccc(/C=C/c2nc(C=Nc3ccccc3)c(O)o2)c1`, the EC50 is reported as > 11 µM (inactive). `CSc1nnc(N2C(=O)C(O)=C(C(=O)c3ccco3)C2c2cccc(Cl)c2)s1` (stereo not drawn) was tested, and the EC50 was > 11 µM (inactive). In the case of `Cn1c(O)c(/C=C2\C=Nc3ccc(Br)cc32)c(=O)n(C)c1=O`, the EC50 is reported as > 11 µM (inactive). With `C(=N\Nc1nc2ccccc2[nH]1)/c1ccccn1` the EC50 was > 11 µM (inactive). With `O=S(=O)([N-]c1nc2ccccc2nc1-[n+]1ccc(CCCc2ccccc2)cc1)c1cccs1` the EC50 was > 11 µM (inactive). In the case of `NC(=O)c1snnc1-c1ccccc1`, the EC50 is reported as > 11 µM (inactive). In the case of `O=C1/C(=C/c2ccc(Br)cc2)Oc2cc(O)ccc21`, the EC50 is reported as > 11 µM (inactive). In the case of `Cc1ccc(Oc2nc(-c3ccccn3)nc3ccccc23)cc1`, the EC50 is reported as > 11 µM (inactive). In the case of `Cc1ccccc1-c1ccc(/C=C2/SC(N3CCOCC3)=NC2=O)o1`, the EC50 is reported as > 11 µM (inactive). In the case of `CC(/C=C1\N=C(SCc2ccccc2Cl)SC1=O)=C\c1ccccc1`, the EC50 is reported as > 11 µM (inactive). With `COc1ccc(/C=c2\sc3nc(=O)c(C)nn3c2=O)c(OC)c1` the EC50 was > 11 µM (inactive). With `Cc1c(/C=N/NC(=O)c2cc(=O)[nH]c(=O)[nH]2)c2ccccn2c1C(=O)c1ccccc1` the EC50 was > 11 µM (inactive). `CN(C)c1ccnc(Oc2ccc(Cl)cc2)c1C#N` was tested, and the EC50 was > 11 µM (inactive). In the case of `COc1ccc2c(c1)c1nc3ccccc3nc1n2CCn1c(=O)oc2ccccc21`, the EC50 is reported as > 11 µM (inactive). For `CC1(OC(=O)c2cnc3ccccc3n2)C(=O)C=C2C=C(c3ccc(C#N)cc3)OC=C2C1=O` (stereo not drawn), the EC50 was > 11 µM (inactive). `CC(C)CNC(=O)C1Nc2ccc(OC(F)(F)F)cc2C2C=CCC12` (stereo not drawn) was tested, and the EC50 was > 11 µM (inactive). `CCN1CCN(Cc2c(O)ccc3c2O/C(=C\c2ccccc2)C3=O)CC1` was tested, and the EC50 was > 11 µM (inactive). For `Cc1ccc(/C=C2/Sc3ccc(C(=O)N4CCC5(CC4)OCCO5)cc3NC2=O)cc1`, the EC50 was > 11 µM (inactive). `O=C(NCc1ccncc1)C(=O)N/N=C/c1ccccn1` was tested, and the EC50 was > 11 µM (inactive). `COC(=O)c1ccc(C)c(-n2c(C)cc(C=O)c2C)c1` was tested, and the EC50 was > 11 µM (inactive). `Cc1cc2oc(=O)c(CC(=O)NCCCO)c(C)c2c2occ(C(C)(C)C)c12` was tested, and the EC50 was > 11 µM (inactive). In the case of `Cc1ccc(NCC(=O)N/N=C/c2ccc(C(=O)O)cc2)cc1`, the EC50 is reported as > 11 µM (inactive). For `Cc1ccc(-n2c(=O)c(C#N)cc3c(=O)n4ccccc4nc32)cc1C`, the EC50 was > 11 µM (inactive). With `O=C(O)c1ccc2c(c1)[C@@H]1C=CC[C@@H]1[C@H](c1ccccn1)N2` the EC50 was > 11 µM (inactive). In the case of `CC(=O)c1ccc(-c2ccc(/C=C(/Sc3n[nH]c(C)n3)C(=O)O)o2)cc1`, the EC50 is reported as > 11 µM (inactive). In the case of `O=C(NNS(=O)(=O)c1ccc([N+](=O)[O-])cc1)C(=O)Nc1cccc(C(=O)O)c1`, the EC50 is reported as > 11 µM (inactive). For `CC(=O)Nc1ccc(/C=C/C(=O)c2ccc3c(c2)OCCO3)cc1`, the EC50 was > 11 µM (inactive). With `Cc1nc2cc(N)ccc2n1C1CCCCC1` the EC50 was > 11 µM (inactive). With `O=C(/C=C/c1ccco1)NC(=S)Nc1ccc(C(=O)O)cc1` the EC50 was > 11 µM (inactive). In the case of `Cc1cc(/C=C2\C(=O)NC(=O)N(c3ccc(Cl)cc3)C2=O)c(C)n1-c1cccc(C(=O)O)c1`, the EC50 is reported as > 11 µM (inactive).
